# Patent US20220281848A1, “PYRAZOLE-SUBSTITUTED PYRROLIDINONES AS HERBICIDES” (FMC Corporation, priority 2019, published 2022)
# Test system: plants
# Assay: Test D pre-emergence, other plants of Tables D1 and D3
# Format: in vivo
# Details: preemergent, 20 DAA
# Outline: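 Seeds treated with herbicide safener; sown in soil; glasshouse, 16 h light, 65% humidity. Sprayed day 1 (pre) or ~day 12 (post). Spray in 0.2% v/v adjuvant. Scored 0–100 damage: 20 DAA pre, 15 d post.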
smiles,measurement,setting,value
CN1C[C@H](c2nn(C)c3c(F)cccc23)[C@@H](C(=O)Nc2cccc(F)c2F)C1=O [Compound 2],"damage to plant (100=total damage to plant; 0=no damage to plant), ABUTH",rate 15,0
same,"damage to plant (100=total damage to plant; 0=no damage to plant), ABUTH",rate 30,0
same,"damage to plant (100=total damage to plant; 0=no damage to plant), ABUTH",rate 60,0
same,"damage to plant (100=total damage to plant; 0=no damage to plant), ABUTH",rate 130,0
same,"damage to plant (100=total damage to plant; 0=no damage to plant), ABUTH",rate 250,0
same,"damage to plant (100=total damage to plant; 0=no damage to plant), ABUTH",rate 500,20
same,"damage to plant (100=total damage to plant; 0=no damage to plant), AMARE",rate 15,0
same,"damage to plant (100=total damage to plant; 0=no damage to plant), AMARE",rate 30,0
same,"damage to plant (100=total damage to plant; 0=no damage to plant), AMARE",rate 60,0
same,"damage to plant (100=total damage to plant; 0=no damage to plant), AMARE",rate 130,0
same,"damage to plant (100=total damage to plant; 0=no damage to plant), AMARE",rate 250,0
same,"damage to plant (100=total damage to plant; 0=no damage to plant), AMARE",rate 500,0
same,"damage to plant (100=total damage to plant; 0=no damage to plant), BIDPI",rate 15,0
same,"damage to plant (100=total damage to plant; 0=no damage to plant), BIDPI",rate 30,0
same,"damage to plant (100=total damage to plant; 0=no damage to plant), BIDPI",rate 60,0
same,"damage to plant (100=total damage to plant; 0=no damage to plant), BIDPI",rate 130,0
same,"damage to plant (100=total damage to plant; 0=no damage to plant), BIDPI",rate 250,0
same,"damage to plant (100=total damage to plant; 0=no damage to plant), BIDPI",rate 500,0
same,"damage to plant (100=total damage to plant; 0=no damage to plant), BRAPL",rate 15,0
same,"damage to plant (100=total damage to plant; 0=no damage to plant), BRAPL",rate 30,70
same,"damage to plant (100=total damage to plant; 0=no damage to plant), BRAPL",rate 60,80
same,"damage to plant (100=total damage to plant; 0=no damage to plant), BRAPL",rate 130,80
same,"damage to plant (100=total damage to plant; 0=no damage to plant), BRAPL",rate 250,90
same,"damage to plant (100=total damage to plant; 0=no damage to plant), BRAPL",rate 500,90
same,"damage to plant (100=total damage to plant; 0=no damage to plant), CYPES",rate 15,0
same,"damage to plant (100=total damage to plant; 0=no damage to plant), CYPES",rate 30,0
same,"damage to plant (100=total damage to plant; 0=no damage to plant), CYPES",rate 60,0
same,"damage to plant (100=total damage to plant; 0=no damage to plant), CYPES",rate 130,0
same,"damage to plant (100=total damage to plant; 0=no damage to plant), CYPES",rate 250,0
same,"damage to plant (100=total damage to plant; 0=no damage to plant), CYPES",rate 500,0
same,"damage to plant (100=total damage to plant; 0=no damage to plant), DIGSA",rate 15,0
same,"damage to plant (100=total damage to plant; 0=no damage to plant), DIGSA",rate 30,90
same,"damage to plant (100=total damage to plant; 0=no damage to plant), DIGSA",rate 60,90
same,"damage to plant (100=total damage to plant; 0=no damage to plant), DIGSA",rate 130,90
same,"damage to plant (100=total damage to plant; 0=no damage to plant), DIGSA",rate 250,90
same,"damage to plant (100=total damage to plant; 0=no damage to plant), DIGSA",rate 500,90
same,"damage to plant (100=total damage to plant; 0=no damage to plant), ECHCG",rate 15,50
same,"damage to plant (100=total damage to plant; 0=no damage to plant), ECHCG",rate 30,50
same,"damage to plant (100=total damage to plant; 0=no damage to plant), ECHCG",rate 60,80
same,"damage to plant (100=total damage to plant; 0=no damage to plant), ECHCG",rate 130,90
same,"damage to plant (100=total damage to plant; 0=no damage to plant), ECHCG",rate 250,90
same,"damage to plant (100=total damage to plant; 0=no damage to plant), ECHCG",rate 500,90
same,"damage to plant (100=total damage to plant; 0=no damage to plant), ELEIN",rate 15,0
same,"damage to plant (100=total damage to plant; 0=no damage to plant), ELEIN",rate 30,0
same,"damage to plant (100=total damage to plant; 0=no damage to plant), ELEIN",rate 60,0
same,"damage to plant (100=total damage to plant; 0=no damage to plant), ELEIN",rate 130,0
same,"damage to plant (100=total damage to plant; 0=no damage to plant), ELEIN",rate 250,0
same,"damage to plant (100=total damage to plant; 0=no damage to plant), ELEIN",rate 500,0
same,"damage to plant (100=total damage to plant; 0=no damage to plant), EPHHL",rate 15,0
same,"damage to plant (100=total damage to plant; 0=no damage to plant), EPHHL",rate 30,0
same,"damage to plant (100=total damage to plant; 0=no damage to plant), EPHHL",rate 60,0
same,"damage to plant (100=total damage to plant; 0=no damage to plant), EPHHL",rate 130,0
same,"damage to plant (100=total damage to plant; 0=no damage to plant), EPHHL",rate 250,0
same,"damage to plant (100=total damage to plant; 0=no damage to plant), EPHHL",rate 500,10
same,"damage to plant (100=total damage to plant; 0=no damage to plant), GLXMA",rate 15,0
same,"damage to plant (100=total damage to plant; 0=no damage to plant), GLXMA",rate 30,0
same,"damage to plant (100=total damage to plant; 0=no damage to plant), GLXMA",rate 60,0
same,"damage to plant (100=total damage to plant; 0=no damage to plant), GLXMA",rate 130,0
same,"damage to plant (100=total damage to plant; 0=no damage to plant), GLXMA",rate 250,0
same,"damage to plant (100=total damage to plant; 0=no damage to plant), GLXMA",rate 500,0
same,"damage to plant (100=total damage to plant; 0=no damage to plant), IPOHE",rate 15,0
same,"damage to plant (100=total damage to plant; 0=no damage to plant), IPOHE",rate 30,0
same,"damage to plant (100=total damage to plant; 0=no damage to plant), IPOHE",rate 60,0
same,"damage to plant (100=total damage to plant; 0=no damage to plant), IPOHE",rate 130,0
same,"damage to plant (100=total damage to plant; 0=no damage to plant), IPOHE",rate 250,0
same,"damage to plant (100=total damage to plant; 0=no damage to plant), IPOHE",rate 500,0
same,"damage to plant (100=total damage to plant; 0=no damage to plant), ORYSA",rate 15,0
same,"damage to plant (100=total damage to plant; 0=no damage to plant), ORYSA",rate 30,0
same,"damage to plant (100=total damage to plant; 0=no damage to plant), ORYSA",rate 60,0
same,"damage to plant (100=total damage to plant; 0=no damage to plant), ORYSA",rate 130,0
same,"damage to plant (100=total damage to plant; 0=no damage to plant), ORYSA",rate 250,0
same,"damage to plant (100=total damage to plant; 0=no damage to plant), ORYSA",rate 500,0
same,"damage to plant (100=total damage to plant; 0=no damage to plant), PANMI",rate 15,0
same,"damage to plant (100=total damage to plant; 0=no damage to plant), PANMI",rate 30,0
same,"damage to plant (100=total damage to plant; 0=no damage to plant), PANMI",rate 60,0
same,"damage to plant (100=total damage to plant; 0=no damage to plant), PANMI",rate 130,0
same,"damage to plant (100=total damage to plant; 0=no damage to plant), PANMI",rate 250,0
same,"damage to plant (100=total damage to plant; 0=no damage to plant), PANMI",rate 500,0
same,"damage to plant (100=total damage to plant; 0=no damage to plant), SETFA",rate 15,0
same,"damage to plant (100=total damage to plant; 0=no damage to plant), SETFA",rate 30,80
same,"damage to plant (100=total damage to plant; 0=no damage to plant), SETFA",rate 60,80
same,"damage to plant (100=total damage to plant; 0=no damage to plant), SETFA",rate 130,80
same,"damage to plant (100=total damage to plant; 0=no damage to plant), SETFA",rate 250,80
same,"damage to plant (100=total damage to plant; 0=no damage to plant), SETFA",rate 500,90
same,"damage to plant (100=total damage to plant; 0=no damage to plant), SIDSP",rate 15,0
same,"damage to plant (100=total damage to plant; 0=no damage to plant), SIDSP",rate 30,0
same,"damage to plant (100=total damage to plant; 0=no damage to plant), SIDSP",rate 60,0
same,"damage to plant (100=total damage to plant; 0=no damage to plant), SIDSP",rate 130,0
same,"damage to plant (100=total damage to plant; 0=no damage to plant), SIDSP",rate 250,0
same,"damage to plant (100=total damage to plant; 0=no damage to plant), SIDSP",rate 500,0
same,"damage to plant (100=total damage to plant; 0=no damage to plant), SORVU",rate 15,0
same,"damage to plant (100=total damage to plant; 0=no damage to plant), SORVU",rate 30,0
same,"damage to plant (100=total damage to plant; 0=no damage to plant), SORVU",rate 60,0
